From patent publication US10988477B2 (Merck Patent GmbH, priority 2018, dated 2021)

How the values were obtained:
[1] = target: intracellular GCN2 (phosphorylation of the GCN2 substrate eIF2α) (Homo sapiens, UniProt Q9P2K8); test: GCN2 cellular inhibition assay (AlphaScreen SureFire P-eIF2α Ser51, borrelidin-treated U2OS cells); assay type: cell-based; details: compounds of Formula II; biomarker assay, phosphorylated eIF2α Ser51 in borrelidin-treated U2OS cells
In short: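 Borrelidin at 10 μM is added to U2OS cells immediately after compound (4-fold dilution series, 40 μM top final) for 1 h at 37 °C. Phosphorylated eIF2α Ser51 in lysates is quantified by AlphaScreen and expressed as percent inhibition against borrelidin-stimulated controls.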

[2] = target: GCN2 kinase (Homo sapiens, UniProt Q9P2K8); test: GCN2 enzyme inhibition assay (Transcreener ADP2 fluorescence polarization); assay type: biochemical; details: compounds of Formula II; 280 μM ATP, 4 nM GCN2 kinase
In short: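 Kinase activity is followed as ADP formation, measured by fluorescence polarization, using 4 nM enzyme with 280 μM ATP and 200 μM (RS)7 peptide at pH 7.5 and 25 °C for 1 h. Values come from a non-linear tight-binding fit.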

Sequence of intracellular GCN2 (phosphorylation of the GCN2 substrate eIF2α) (Q9P2K8 whole entry): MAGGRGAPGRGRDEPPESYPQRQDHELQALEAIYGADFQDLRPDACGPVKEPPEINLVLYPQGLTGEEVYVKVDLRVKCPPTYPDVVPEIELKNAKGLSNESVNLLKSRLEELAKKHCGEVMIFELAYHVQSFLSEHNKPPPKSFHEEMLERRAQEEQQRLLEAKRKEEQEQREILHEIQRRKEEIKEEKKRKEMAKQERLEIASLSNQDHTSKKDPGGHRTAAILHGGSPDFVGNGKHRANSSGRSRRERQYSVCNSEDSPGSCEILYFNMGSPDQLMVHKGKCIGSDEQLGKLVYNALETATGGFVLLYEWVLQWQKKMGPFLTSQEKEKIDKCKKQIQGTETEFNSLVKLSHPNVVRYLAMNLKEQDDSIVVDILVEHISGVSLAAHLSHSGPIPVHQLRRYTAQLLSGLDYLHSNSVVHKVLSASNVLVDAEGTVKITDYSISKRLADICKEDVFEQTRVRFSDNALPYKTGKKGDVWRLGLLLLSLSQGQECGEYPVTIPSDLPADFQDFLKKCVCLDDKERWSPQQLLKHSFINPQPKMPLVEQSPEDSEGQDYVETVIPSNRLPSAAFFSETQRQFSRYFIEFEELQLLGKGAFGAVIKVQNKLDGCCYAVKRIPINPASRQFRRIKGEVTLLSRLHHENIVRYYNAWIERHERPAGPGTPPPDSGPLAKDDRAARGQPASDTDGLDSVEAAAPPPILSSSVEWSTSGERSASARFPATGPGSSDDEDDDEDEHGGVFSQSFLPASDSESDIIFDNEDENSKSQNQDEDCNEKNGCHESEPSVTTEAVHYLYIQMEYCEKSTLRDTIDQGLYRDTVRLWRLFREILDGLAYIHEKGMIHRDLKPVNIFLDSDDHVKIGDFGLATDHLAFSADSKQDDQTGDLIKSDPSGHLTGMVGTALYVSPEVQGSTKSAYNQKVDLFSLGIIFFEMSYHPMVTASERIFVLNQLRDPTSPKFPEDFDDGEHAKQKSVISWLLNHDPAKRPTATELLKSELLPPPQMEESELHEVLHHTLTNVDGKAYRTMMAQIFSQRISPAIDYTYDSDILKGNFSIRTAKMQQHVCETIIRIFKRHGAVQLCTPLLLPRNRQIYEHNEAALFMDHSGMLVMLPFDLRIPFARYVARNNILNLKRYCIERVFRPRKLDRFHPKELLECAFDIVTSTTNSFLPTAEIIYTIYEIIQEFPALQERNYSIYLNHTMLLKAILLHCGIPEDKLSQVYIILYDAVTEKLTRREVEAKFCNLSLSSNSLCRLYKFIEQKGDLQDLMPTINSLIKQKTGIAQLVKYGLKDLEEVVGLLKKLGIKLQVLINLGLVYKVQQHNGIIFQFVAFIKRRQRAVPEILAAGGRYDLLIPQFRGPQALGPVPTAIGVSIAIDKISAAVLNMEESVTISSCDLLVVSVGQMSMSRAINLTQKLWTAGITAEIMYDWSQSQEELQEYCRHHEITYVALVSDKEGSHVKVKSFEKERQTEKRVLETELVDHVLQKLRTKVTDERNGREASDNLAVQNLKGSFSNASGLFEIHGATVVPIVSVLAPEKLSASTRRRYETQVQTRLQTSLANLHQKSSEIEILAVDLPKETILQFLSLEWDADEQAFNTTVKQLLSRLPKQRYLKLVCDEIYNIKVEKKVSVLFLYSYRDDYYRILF
Sequence of GCN2 kinase (Q9P2K8 whole entry): as above

| IC50 [1] [µM] | Ki [2] [µM] | Structure (SMILES) |
| --- | --- | --- |
| 0.5 to 5 | 0.01 to 1 | OC[C@@H]1CN(c2cc(-c3cnc4ccc(C(F)F)nn34)ncn2)C[C@@H](C(F)(F)F)O1 [II-297, ((2S,6S)-4-(6-(6-(Difluoromethyl)imidazo[1,2-b]pyridazin-3-yl)pyrimidin-4-yl)-6-(trifluoromethyl)morpholin-2-yl)methanol] |
| 0.5 to 5 | 0.01 to 1 | OC[C@H]1CN(c2cc(-c3cnc4ccc(C(F)F)nn34)ncn2)C[C@@H](C(F)(F)F)O1 [II-298, ((2R,6S)-4-(6-(6-(Difluoromethyl)imidazo[1,2-b]pyridazin-3-yl)pyrimidin-4-yl)-6-(trifluoromethyl)morpholin-2-yl)methanol] |
| 0.5 to 5 | 0.01 to 1 | N#CCC1CCCN(c2cc(-c3cnc4ccc(C(F)F)nn34)ncn2)C1 (stereo not shown) [II-299, 2-(1-(6-(6-(Difluoromethyl)imidazo[1,2-b]pyridazin-3-yl)pyrimidin-4-yl)piperidin-3-yl)acetonitrile] |
| < 0.5 | < 0.01 | CS(=O)(=O)NC[C@H]1CCCN(c2cc(-c3cnc4ccc(C(F)F)nn34)ncn2)C1 [II-300, (S)—N-((1-(6-(6-(Difluoromethyl)imidazo[1,2-b]pyridazin-3-yl)pyrimidin-4-yl)piperidin-3-yl)methyl)methanesulfonamide] |
| 0.5 to 5 | 0.01 to 1 | FC(F)c1ccc2ncc(-c3cc(N4CCOC5CC54)ncn3)n2n1 (stereo not shown) [II-301, 5-(6-(6-(Difluoromethyl)imidazo[1,2-b]pyridazin-3-yl)pyrimidin-4-yl)-2-oxa-5-azabicyclo[4.1.0]heptane] |
| 0.5 to 5 | 0.01 to 1 | CS(=O)(=O)NC[C@H]1CN(c2cc(-c3cnc4ccc(C(F)F)nn34)ncn2)C[C@@H](C(F)(F)F)O1 [II-306, N-(((2R,6S)-4-(6-(6-(Difluoromethyl)imidazo[1,2-b]pyridazin-3-yl)pyrimidin-4-yl)-6-(trifluoromethyl)morpholin-2-yl)methyl)methanesulfonamide] |
| 0.5 to 5 | 0.01 to 1 | CS(=O)(=O)NC[C@@H]1CN(c2cc(-c3cnc4ccc(C(F)F)nn34)ncn2)C[C@@H](C(F)(F)F)O1 [II-307, N-(((2S,6S)-4-(6-(6-(Difluoromethyl)imidazo[1,2-b]pyridazin-3-yl)pyrimidin-4-yl)-6-(trifluoromethyl)morpholin-2-yl)methyl)methanesulfonamide] |
| > 5 | 0.01 to 1 | FC(F)c1ccc2ncc(-c3cc(N4CCCCC4)ncn3)n2n1 [II-308, 6-(Difluoromethyl)-3-(6-(piperidin-1-yl)pyrimidin-4-yl)imidazo[1,2-b]pyridazine] |
| > 5 | > 1 | O=C1COC2(CN1)COCCN(c1cc(-c3cnc4ccc(C(F)F)nn34)ncn1)C2 (stereo not shown) [II-309, 11-(6-(6-(Difluoromethyl)imidazo[1,2-b]pyridazin-3-yl)pyrimidin-4-yl)-1,8-dioxa-4,11-diazaspiro[5.6]dodecan-3-one] |

The remaining lines, values behind:

| Structure (SMILES) | IC50 [1] [µM] | Ki [2] [µM] |
| --- | --- | --- |
| NS(=O)(=O)CCC1CCCCN1c1cc(-c2cnc3ccc(C(F)F)nn23)ncn1 (stereo not shown) [II-283, 2-(1-(6-(6-(Difluoromethyl)imidazo[1,2-b]pyridazin-3-yl)pyrimidin-4-yl)piperidin-2-yl)ethane-1-sulfonamide] | > 5 | 0.01 to 1 |
| NS(=O)(=O)N1CCCC2(CN(c3cc(-c4cnc5ccc(C(F)F)nn45)ncn3)C2)C1 [II-284, 2-(6-(6-(Difluoromethyl)imidazo[1,2-b]pyridazin-3-yl)pyrimidin-4-yl)-2,6-diazaspiro[3.5]nonane-6-sulfonamide] | > 5 | 0.01 to 1 |
| NS(=O)(=O)N1CCOC2(CN(c3cc(-c4cnc5ccc(C(F)F)nn45)ncn3)C2)C1 [II-285, 2-(6-(6-(Difluoromethyl)imidazo[1,2-b]pyridazin-3-yl)pyrimidin-4-yl)-5-oxa-2,8-diazaspiro[3.5]nonane-8-sulfonamide] | > 5 | 0.01 to 1 |
| NS(=O)(=O)N1CC2CCN(c3cc(-c4cnc5ccc(C(F)F)nn45)ncn3)C2C1 (stereo not shown) [II-286, 1-(6-(6-(Difluoromethyl)imidazo[1,2-b]pyridazin-3-yl)pyrimidin-4-yl)hexahydropyrrolo[3,4-b]pyrrole-5(1H)-sulfonamide] | > 5 | 0.01 to 1 |
| CS(=O)(=O)N1CCC2(CC1)CN(c1cc(-c3cnc4ccc(C(F)F)nn34)ncn1)CCO2 [II-287, 4-(6-(6-(Difluoromethyl)imidazo[1,2-b]pyridazin-3-yl)pyrimidin-4-yl)-9-(methylsulfonyl)-1-oxa-4,9-diazaspiro[5.5]undecane] | > 5 | 0.01 to 1 |
| CS(=O)(=O)N1CCCC2(CN(c3cc(-c4cnc5ccc(C(F)F)nn45)ncn3)CCO2)C1 (stereo not shown) [II-288, 4-(6-(6-(Difluoromethyl)imidazo[1,2-b]pyridazin-3-yl)pyrimidin-4-yl)-8-(methylsulfonyl)-1-oxa-4,8-diazaspiro[5.5]undecane] | > 5 | 0.01 to 1 |
| O=S(=O)(NCC1CCCN(c2cc(-c3cnc4ccc(C(F)F)nn34)ncn2)C1)C1COC1 (stereo not shown) [II-289, N-((1-(6-(6-(Difluoromethyl)imidazo[1,2-b]pyridazin-3-yl)pyrimidin-4-yl)piperidin-3-yl)methyl)oxetane-3-sulfonamide] | 0.5 to 5 | 0.01 to 1 |
| CN(C[C@@H]1CN(c2cc(-c3cnc4ccc(C(F)F)nn34)ncn2)CCO1)S(C)(=O)=O [II-290, (S)—N-((4-(6-(6-(Difluoromethyl)imidazo[1,2-b]pyridazin-3-yl)pyrimidin-4-yl)morpholin-2-yl)methyl)-N-methylmethanesulfonamide] | 0.5 to 5 | 0.01 to 1 |
| CS(=O)(=O)NC[C@H]1CCCN(c2cc(-c3cnc4ccc(C(F)(F)F)nn34)ncn2)C1 [II-291, (S)—N-((1-(6-(6-(Trifluoromethyl)imidazo[1,2-b]pyridazin-3-yl)pyrimidin-4-yl)piperidin-3-yl)methyl)methanesulfonamide] | < 0.5 | < 0.01 |
| CS(=O)(=O)NC[C@@H]1CN(c2cc(-c3cnc4ccc(C(F)(F)F)nn34)ncn2)CCO1 [II-292, (S)—N-((4-(6-(6-(Trifluoromethyl)imidazo[1,2-b]pyridazin-3-yl)pyrimidin-4-yl)morpholin-2-yl)methyl)methanesulfonamide] | 0.5 to 5 | 0.01 to 1 |
| CC1CN(c2cc(-c3cnc4ccc(C(F)(F)F)nn34)ncn2)CC(CNS(C)(=O)=O)C1(F)F (stereo not shown) [II-293, N-((4,4-Difluoro-5-methyl-1-(6-(6-(trifluoromethyl)imidazo[1,2-b]pyridazin-3-yl)pyrimidin-4-yl)piperidin-3-yl)methyl)methanesulfonamide] | 0.5 to 5 | 0.01 to 1 |
| CC1CN(c2cc(-c3cnc4ccc(C(F)(F)F)nn34)ncn2)CC(CNS(C)(=O)=O)C1(F)F (stereo not shown) [II-294, N-((4,4-Difluoro-5-methyl-1-(6-(6-(trifluoromethyl)imidazo[1,2-b]pyridazin-3-yl)pyrimidin-4-yl)piperidin-3-yl)methyl)methanesulfonamide] | > 5 | 0.01 to 1 |
| O=S1(=O)CCN(c2cc(-c3cnc4ccc(C(F)F)nn34)ncn2)CC1 [II-295, 4-(6-(6-(Difluoromethyl)imidazo[1,2-b]pyridazin-3-yl)pyrimidin-4-yl)thiomorpholine 1,1-dioxide] | > 5 | > 1 |
| [O-][S+]1CCN(c2cc(-c3cnc4ccc(C(F)F)nn34)ncn2)CC1 [II-296, 4-(6-(6-(Difluoromethyl)imidazo[1,2-b]pyridazin-3-yl)pyrimidin-4-yl)thiomorpholine 1-oxide] | > 5 | > 1 |
